Results taken from ChEMBL document CHEMBL1201862, “PubChem BioAssay data set” (2004).
Activity calls are given as the source filed them.

Legend:
[1] = target: T1, Probable nicotinate-nucleotide adenylyltransferase (Staphylococcus aureus (strain N315), UniProt P65502); type: functional, Staphylococcus aureus subsp. aureus N315;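 for IC50 Mean: confirmatory dose-response retesting of NadD inhibitor hits first found in an ultra-high-throughput screen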
[2] = target: T1, Probable nicotinate-nucleotide adenylyltransferase; type: functional, Staphylococcus aureus subsp. aureus N315; conditions: read-out: IC50_Mean
HEK293 [3] = experiment: inhibition of NOD1-driven NF-kB reporter – cell-based, luminescence, uHTS, primary screen (AID 1578); type: functional; conditions: Homo sapiens
HEK293 [4] = experiment: NOD2 signaling inhibitors in MDP-stimulated cells, cell-based, uHTS, luminescence (AID 2001); type: functional; conditions: Homo sapiens
[5] = target: T2, Small ubiquitin-related modifier 1 (Homo sapiens, UniProt P63165); experiment: SUMO1 protein interaction blockers, potency – biochemical, fluorescence polarization, uHTS hits, dose response (AID 624382); type: functional; conditions: read-out: IC50_Mean
[6] = target: Nucleotide-binding oligomerization domain-containing protein 2 (Homo sapiens, UniProt Q9HC29); experiment: inhibition of NOD2-driven NF-kB reporter – cell-based, luminescence, uHTS, HEK293 (AID 1566); type: functional
Caspase-8 = Caspase-8 (Homo sapiens, UniProt Q14790); experiment: inhibitors of purified CASP8 protease – biochemical, Z-IETD-R110 fluorescence, cherry-picked samples, selectivity assay for caspase-6 inhibitor project, dose response (AID 743294)
[7] = target: T3, Low molecular weight phosphotyrosine protein phosphatase (Homo sapiens, UniProt P24666); type: functional; conditions: read-out: IC50_Mean
T3 sequence (P24666 whole entry): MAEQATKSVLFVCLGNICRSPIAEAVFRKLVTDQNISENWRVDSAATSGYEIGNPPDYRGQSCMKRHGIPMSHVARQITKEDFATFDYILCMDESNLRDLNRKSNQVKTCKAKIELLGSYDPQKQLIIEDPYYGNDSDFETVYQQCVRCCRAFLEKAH

[8] = target: T2, Small ubiquitin-related modifier 1; experiment: SUMO1 protein-protein binding blockers, potency – biochemical, FRET, dose response (AID 624383); type: functional; conditions: read-out: IC50_Mean
[9] = target: T4, Carboxy-terminal domain RNA polymerase II polypeptide A small phosphatase 1 (Homo sapiens, UniProt Q9GZU7); experiment: CTDSP1 inhibitors, concentration-response, biochemical, absorbance readout, ultra-high-throughput screen actives (AID 540297); type: functional
T4 sequence (Q9GZU7 whole entry): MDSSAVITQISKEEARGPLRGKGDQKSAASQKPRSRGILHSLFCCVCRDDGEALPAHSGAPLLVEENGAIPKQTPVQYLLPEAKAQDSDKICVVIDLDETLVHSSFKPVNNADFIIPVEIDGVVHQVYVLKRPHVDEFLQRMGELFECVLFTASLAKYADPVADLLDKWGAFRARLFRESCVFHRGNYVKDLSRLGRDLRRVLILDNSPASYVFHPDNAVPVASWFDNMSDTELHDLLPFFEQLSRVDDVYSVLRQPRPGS

[10] = target: T5, Tyrosine-protein phosphatase non-receptor type 11 (Homo sapiens, UniProt Q06124); experiment: PTPN11 enzyme inhibitors – biochemical, selectivity assay for STEP inhibitor project, dose response (AID 602367); type: functional; conditions: read-out: IC50_Mean
T5 sequence (Q06124 whole entry): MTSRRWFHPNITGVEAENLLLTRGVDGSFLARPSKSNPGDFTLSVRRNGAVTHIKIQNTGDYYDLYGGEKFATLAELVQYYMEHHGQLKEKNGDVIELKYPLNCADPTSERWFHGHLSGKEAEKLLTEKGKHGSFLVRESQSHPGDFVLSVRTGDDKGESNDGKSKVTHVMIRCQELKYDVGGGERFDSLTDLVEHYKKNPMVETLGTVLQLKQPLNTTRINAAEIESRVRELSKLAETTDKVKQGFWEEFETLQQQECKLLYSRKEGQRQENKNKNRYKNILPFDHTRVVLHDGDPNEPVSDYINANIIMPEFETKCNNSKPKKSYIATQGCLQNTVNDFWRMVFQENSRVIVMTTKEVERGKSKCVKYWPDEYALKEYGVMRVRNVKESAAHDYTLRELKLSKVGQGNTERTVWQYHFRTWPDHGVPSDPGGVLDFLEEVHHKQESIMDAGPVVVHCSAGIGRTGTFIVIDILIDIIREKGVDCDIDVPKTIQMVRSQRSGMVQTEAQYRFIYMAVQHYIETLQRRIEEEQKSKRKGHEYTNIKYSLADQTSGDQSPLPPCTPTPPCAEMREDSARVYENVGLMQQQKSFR

[11] = target: T6, Tyrosine-protein phosphatase non-receptor type 5 (Homo sapiens, UniProt P54829); experiment: PTPN5 enzyme inhibition – biochemical, fluorescence intensity, uHTS hits, confirmation (AID 602372); type: functional; conditions: read-out: IC50_Mean
T6 sequence (P54829 whole entry): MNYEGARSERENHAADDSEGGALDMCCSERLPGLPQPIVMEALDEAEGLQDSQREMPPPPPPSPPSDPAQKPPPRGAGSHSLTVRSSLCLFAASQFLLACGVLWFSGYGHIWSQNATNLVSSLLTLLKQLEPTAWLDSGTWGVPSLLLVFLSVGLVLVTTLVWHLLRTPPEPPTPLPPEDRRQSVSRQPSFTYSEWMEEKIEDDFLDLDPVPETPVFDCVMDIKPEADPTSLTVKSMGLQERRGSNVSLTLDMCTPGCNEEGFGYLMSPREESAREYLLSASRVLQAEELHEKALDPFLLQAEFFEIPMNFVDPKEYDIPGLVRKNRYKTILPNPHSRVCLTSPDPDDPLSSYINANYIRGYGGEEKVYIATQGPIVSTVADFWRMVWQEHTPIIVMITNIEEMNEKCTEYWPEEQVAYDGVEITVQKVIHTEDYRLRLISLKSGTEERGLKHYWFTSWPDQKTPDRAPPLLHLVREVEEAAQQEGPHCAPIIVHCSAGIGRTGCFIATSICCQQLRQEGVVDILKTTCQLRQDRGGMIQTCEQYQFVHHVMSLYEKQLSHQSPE

Caspase-6 = target: T7, Caspase-6 (Homo sapiens, UniProt P55212); experiment: inhibition of CASP6 peptide cleavage – biochemical, VEID-R110 fluorescence, cherry-pick, dose response (AID 720632)
T7 sequence (P55212 whole entry): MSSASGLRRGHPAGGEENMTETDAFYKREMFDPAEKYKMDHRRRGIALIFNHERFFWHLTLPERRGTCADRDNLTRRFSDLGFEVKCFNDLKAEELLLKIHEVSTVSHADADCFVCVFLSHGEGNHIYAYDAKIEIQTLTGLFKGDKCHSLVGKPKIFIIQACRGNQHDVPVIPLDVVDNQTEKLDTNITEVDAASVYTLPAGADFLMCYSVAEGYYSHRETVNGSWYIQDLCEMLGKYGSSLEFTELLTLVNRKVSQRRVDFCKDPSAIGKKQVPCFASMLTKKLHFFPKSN

HEK293 [12] = experiment: cells; type: functional, cell-based; conditions: Homo sapiens
HEK293 [13] = experiment: cells; type: functional, cell-based; conditions: Homo sapiens; remark: listed apart in the source
[14] = target: T3, Low molecular weight phosphotyrosine protein phosphatase; type: functional; conditions: read-out: IC50_Mean; remark: listed apart in the source
[15] = target: Dual specificity protein phosphatase 3 (Homo sapiens, UniProt P51452); experiment: VHR phosphatase inhibition, dose response, selectivity assay for STEP inhibitor project, biochemical (AID 602374); type: functional; conditions: read-out: IC50_Mean
Chain of Dual specificity protein phosphatase 3 (P51452 whole entry): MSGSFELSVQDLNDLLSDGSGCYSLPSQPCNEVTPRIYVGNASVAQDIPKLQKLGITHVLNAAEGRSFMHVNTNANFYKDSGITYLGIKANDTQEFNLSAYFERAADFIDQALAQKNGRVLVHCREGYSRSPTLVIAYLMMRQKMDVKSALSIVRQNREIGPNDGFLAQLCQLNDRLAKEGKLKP

T1 sequence (P65502 whole entry): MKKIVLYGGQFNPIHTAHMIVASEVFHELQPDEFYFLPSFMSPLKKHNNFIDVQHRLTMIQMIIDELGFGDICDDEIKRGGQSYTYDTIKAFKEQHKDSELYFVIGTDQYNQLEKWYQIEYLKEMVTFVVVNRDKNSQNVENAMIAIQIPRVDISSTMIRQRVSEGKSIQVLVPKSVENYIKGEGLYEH
T2 sequence (P63165 whole entry, the tested form may be a part): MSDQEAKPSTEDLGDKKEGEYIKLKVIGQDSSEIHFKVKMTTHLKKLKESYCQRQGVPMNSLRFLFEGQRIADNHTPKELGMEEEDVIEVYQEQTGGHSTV
Chain of Nucleotide-binding oligomerization domain-containing protein 2 (Q9HC29 whole entry, the tested form may be a part): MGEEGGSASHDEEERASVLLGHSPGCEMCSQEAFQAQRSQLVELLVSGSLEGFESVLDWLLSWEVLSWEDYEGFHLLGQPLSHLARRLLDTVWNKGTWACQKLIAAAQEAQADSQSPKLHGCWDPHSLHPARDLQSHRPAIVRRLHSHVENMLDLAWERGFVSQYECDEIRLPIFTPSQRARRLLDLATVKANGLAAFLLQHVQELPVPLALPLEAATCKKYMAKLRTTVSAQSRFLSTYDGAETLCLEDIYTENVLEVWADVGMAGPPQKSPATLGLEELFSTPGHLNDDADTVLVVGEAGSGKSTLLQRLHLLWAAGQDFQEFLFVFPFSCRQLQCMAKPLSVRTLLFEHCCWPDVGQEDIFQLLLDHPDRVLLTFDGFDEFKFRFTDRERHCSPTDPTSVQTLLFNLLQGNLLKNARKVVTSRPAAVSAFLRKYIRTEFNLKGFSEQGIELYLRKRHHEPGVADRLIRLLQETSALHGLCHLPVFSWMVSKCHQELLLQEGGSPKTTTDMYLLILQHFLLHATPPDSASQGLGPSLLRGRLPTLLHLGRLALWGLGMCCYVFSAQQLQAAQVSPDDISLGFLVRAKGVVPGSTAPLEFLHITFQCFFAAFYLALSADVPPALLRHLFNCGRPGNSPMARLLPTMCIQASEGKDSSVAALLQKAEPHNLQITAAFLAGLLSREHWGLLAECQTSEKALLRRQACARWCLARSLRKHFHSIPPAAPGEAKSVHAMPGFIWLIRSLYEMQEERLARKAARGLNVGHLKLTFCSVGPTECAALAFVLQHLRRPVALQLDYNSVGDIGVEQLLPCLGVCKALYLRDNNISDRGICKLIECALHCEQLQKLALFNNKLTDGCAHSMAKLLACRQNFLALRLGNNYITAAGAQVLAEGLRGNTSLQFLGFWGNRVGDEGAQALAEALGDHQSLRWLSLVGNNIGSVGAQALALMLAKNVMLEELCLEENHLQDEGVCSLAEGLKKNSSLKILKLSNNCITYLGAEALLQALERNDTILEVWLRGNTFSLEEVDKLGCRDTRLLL
Chain of Caspase-8 (Q14790 217-374 limits assumed): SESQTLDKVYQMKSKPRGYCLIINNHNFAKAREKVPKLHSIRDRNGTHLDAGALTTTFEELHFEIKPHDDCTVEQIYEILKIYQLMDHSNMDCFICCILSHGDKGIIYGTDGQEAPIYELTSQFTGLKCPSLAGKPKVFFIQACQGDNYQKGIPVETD
Chain of Caspase-8 (Q14790 385-479 limits assumed): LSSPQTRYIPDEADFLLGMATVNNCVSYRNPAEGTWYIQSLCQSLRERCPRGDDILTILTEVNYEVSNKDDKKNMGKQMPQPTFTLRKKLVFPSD

Compound | IC50 [1] | IC50 [2] | EC50 (HEK293 [3]) | IC50 (HEK293 [4]) | IC50 [5] | EC50 [6] | AC50 (Caspase-8) | IC50 [7] | IC50 [8] | IC50 [9] | IC50 [10] | IC50 [11] | AC50 (Caspase-6) | IC50 (HEK293 [12]) | IC50 (HEK293 [13]) | IC50 [14] | IC50 [15]
Cc1ccc(-c2cc(C(=O)Nc3ccc(S(=O)(=O)Nc4onc(C)c4C)cc3)c3ccccc3n2)cc1 | 5.56 µM (active) | 20.1 µM (active) |  |  |  |  |  |  |  |  |  |  |  |  |  |  | 
Cc1c(CCC(=O)O)c(=O)oc2c(C)c(OCc3ccccc3Cl)ccc12 |  |  | > 20 µM (inactive) | > 20 µM (inactive) | > 66.6 µM (inactive) | 2.94 µM (active) | > 70 µM (inactive) | 6.36 µM (active) | 9.18 µM (active) | 1.99 µM (active) | 1.55 µM (active) | 2.94 µM (active) | 1.38 µM (active) | > 20 µM (inactive) | 9.68 µM (active) | 4.25 µM (active) | 1.56 µM (active)
